Patent publication US11458153B2, “Drug delivery composition comprising a self-assembled gelator” (The Brigham and Women's Hospital, Inc., priority 2008, dated 2022)
Entries after “also recorded” stand apart in the source; their conditions may differ.

How the values were obtained:
[1] = Gelation studies with Apn-based prodrug gelators in water and organic solvents; type: physicochemical; parameters: key to Gelation ability: G = gel; P = precipitate; S = soluble; I = insoluble; details: for gelation in water (in words): water / aqueous solutions
Source text: Gelation Studies with Prodrug-Based Gelators. Gelation abilities of Apn based amphiphilic prodrugs have been investigated thoroughly in a wide range of solvents. For detailed gelation results, see Table 1, below). Typically, the required amount of gelator was placed in a glass vial and with an appropriate solvent. […] The resulting solution was slowly cooled to room temperature and gelation was visually observed. […] Despite of prolonged heating Apn-11-CH3 was not soluble in water. […] In addition, Apn-7-COOH is soluble in basic solutions (pH is more than 8).
All gels were opaque in nature and stable for several weeks.
Preparation of Gels. Typically, gelator (0.1-5 mg) and required solvent (0.1-1 mL) were placed into a 2 mL scintillation vial, which was then sealed with a screw cap. The vial was heated with shaking until the solid was completely dissolved.

[2] = test system: mesenchymal stem cells (MSCs); assay: MSC viability, trypan blue exclusion; type: cell-based, human; details: 250 μM, 48 hours incubation
Method: Cytocompatibility. The cytocompatibility of prodrugs generated from small modification of known drugs was investigated. […] To test the cyto compatibility of prodrug-based amphiphiles and bolaamphiphiles, and their effect on cell characteristics such as viability, proliferation, adhesion and cell phenotype, a series of experiments was performed with mesenchymal stem cells (MSCs). To gain more insight into the effect of modification, unmodified drug Apn was used as a control. The viability of control cells and cells treated with Apn, Apn-7-COOH and Apn-8-Apn was examined with trypan blue assay. Use of Mesenchymal stem cells is appropriate given that these systems may be used for localized release likely into connective tissues.
Mesenchymal Stem Cell Culture. Primary human mesenchymal stem cells were maintained in expansion media that consisted of 15% Fetal Bovine Serum (selected for its ability to expand MSCs), 1% (v/v) L-Glutamine, 1% (v/v) Penn-Strep, and α-MEM. All experiments were performed using MSCs at passage number 4-6.
Viability, Adhesion and Proliferation Characteristics. The viability of the cells was examined using trypan blue exclusion. […] The media was then aspirated and the cells were detached with 200 μL of cell dissociated solution (similar quantities of floating cells were observed between the groups, typically 5-10 per well). 300 μL of media was added and the total 500 μL of the cell dispersion was collected in an eppendorf tubes. From this 10 μL of cell dispersion was diluted to 1:1 with 4% trypan blue solution and cells were counted in a hemocytometer to determine the number viable (non-blue) and nonviable (blue) cells. A control for this experiment included cells treated with only phosphate buffer saline (PBS) without an amphiphile. Cell adhesion was quantified by measuring the number of adherent cells on tissue culture surfaces in 96 well plates after incubating with amphiphiles for 12 hours. For proliferation studies, 5000 cells were added to each well of a 96 well plate in 200 μL of MSC cell expansion media, and appropriate amphiphiles were then added and incubated at 37° C. and 5% CO2. Proliferation was quantified by manually tabulating the number of cells within the flask at multiple time points (1, 2, 3, 4, 6 and 8 days) with light microscopy at 10×.

[3] = test system: mesenchymal stem cells (MSCs); assay: MSC adipogenic differentiation, Oil Red O staining; type: cell-based, human; details: 250 μM, 23 days of induction
Method: (§1) Unlike typical fibroblast cell lines used for toxicity screening, cultured mesenchymal stem cells are highly sensitive to the presence of soluble factors and can often loose their capacity for multi-lineage differentiation or differentiate into non-desired lineages depending on the culture conditions. To examine the impact of the acetaminophen amphiphilic prodrugs on multi-lineage differentiation of MSCs, cells were treated with adipogenic and osteogenic induction media in presence of amphiphiles followed by respective colorimetric histological staining.
Adipogenic Differentiation. MSCs were seeded in the wells of 24 well plates, and were culture in MSC expansion media until they reach 90% confluence (note: in control samples there was no amphiphile present, whereas in experimental samples 250 μM of Apn-based amphiphile was present). Adipogenic differentiation was induced by culturing the cells for 23 days in adipogenic induction media (from Lonza—MSCs Adipogenic Single Quote kit containing h-Insulin (recombinant), L-Glutamine, Dexamethasone, Indomethacin, IBMX (3-isobuty-1-methyl-xanthine), Pen/Strep) and adipogenic maintenance media (from Lonza—MSCs Adipogenic Single Quote kit containing h-Insulin (recombinant), L-Glutamine, Pen/Strep). […] Adipogenesis was evaluated by Oil Red O staining. Following aspiration of the media, cells were washed once with PBS, and fixed in PBS with 3.7% formaldehyde for 30 min at room temperature. Following fixation cells were rinsed with distilled water for a few minutes, and incubated with isopropanol containing an Oil Red O working solution (prepared by diluting 30 mL of 0.5% isopropanol/Oil Red O solution with 20 mL of distilled water). After 45 minutes culture well were rinsed twice with distilled water and 1 mL of hematoxylin was added to each well for 1 minute followed by aspiration and washing with distilled water. The wells were viewed using an inverted phase contrast microscope.

[4] = test system: mesenchymal stem cells (MSCs); assay: MSC osteogenic differentiation, alkaline phosphatase staining; type: cell-based, human; details: 250 μM, 23 days
Method: as §1
Osteogenic Differentiation. MSCs were seeded in the wells of 24 well plates, and were culture in MSC expansion media until they reach 90% confluence (note: in control samples there was no amphiphile present, whereas in experimental samples 250 μM of Apn-based amphiphile was present). Osteogenic differentiation was induced by culturing the cells for 23 days in osteogenic induction media (from Lonza—MSCs Osteogenic Single Quote kit) containing dexamethasone, β-glycerophosphate, L-ascorbic acid-2-phosphate, and α-MEM. The media in both groups was changed every 3 days (note: each time while changing the media, 250 μM of Apn-based amphiphiles were added to maintain constant concentration). Osteogenesis was evaluated by cell membrane associated alkaline phosphatase activity. Alkaline phosphatase activity was examined after 23 days by carefully aspirating the media and washing the cells with PBS. The cells were fixed with 3.7% formaldehyde solution for 15 min at room temperature followed by rinsing with distilled water. 0.06% Red Violet LB salt solution in Tris HCl was added with distilled water containing DMF and Naphthol AS MX-PO4. The plates were incubated for 45 minutes at room temperature and then the wells were rinsed 3 times with distilled water and imaged under with inverted phase contrast microscope.

[5] = target: T1, lipase (Lipolase 100L, Type EX) (Thermomyces lanuginosus, UniProt O59952); assay: Enzyme-triggered hydrogel degradation and drug release; type: in vitro ADME; details: curcumin-encapsulated hydrogel, lipase, 37° C., several days
T1 construct: purchased Novozymes through Brenntag North America Lipolase 100L, Type EX
T1 sequence (O59952 23-291): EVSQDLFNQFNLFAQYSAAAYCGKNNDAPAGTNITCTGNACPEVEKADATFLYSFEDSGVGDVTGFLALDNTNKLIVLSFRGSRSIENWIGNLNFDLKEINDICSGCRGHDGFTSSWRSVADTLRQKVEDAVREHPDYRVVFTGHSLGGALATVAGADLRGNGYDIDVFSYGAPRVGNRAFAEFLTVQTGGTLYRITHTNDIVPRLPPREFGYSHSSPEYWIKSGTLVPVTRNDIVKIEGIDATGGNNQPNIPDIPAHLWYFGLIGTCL
Method: Encapsulation and release of curcumin was previously studied by the Ultra-Violet absorbance spectroscopy (λmax at 424 nm). Absorbance spectrum of modified Apn-7-COOH was similar to that of Apn (FIG. 6B). In this instance, enzyme-triggered single and multiple drug delivery has been carried out using two sets of hydrogel samples, i.e., hydrogels of Apn-7-COOH and Apn-8-Apn with and without curcumin. In the first set, lipase (Lipolase 100L, Type EX, lipase units 100 KLU/g) was added to the preformed hydrogel of Apn-7-COOH (2 wt %) and kept it at 37° C. which is lower than gel melting temperature. It was anticipated that lipase (esterase) would hydrolyze the ester bond of prodrug-based gelator (Apn-7-COOH) to release acetaminophen and dicarboxylic acid as the hydrogel degrades. As expected, after 48 hours the gel completely degraded and became a clear solution.
To test this further, and examine multiple (two) drugs delivery (FIGS. 6A-6E), curcumin was encapsulated in the hydrogel of Apn-7-COOH (2 wt %) and to that lipase was added and kept it at 37° C. Absorbance spectra were recorded on aliquots which were collected (after the addition of enzyme to the hydrogel) at regular intervals (FIG. 6C). […] The concentration of the enzyme used in these in vitro experiments is higher than physiological concentration of esterases (for example, physiological concentration of cholesterol esterase is 7 U/ml).
Increasing either concentration of enzyme or incubation temperature to 45° C. doubles the drug release rate, which was correlating with previous findings.
To analyze the gel degradation mechanism, another prodrug Apn-5-ether-COOH was synthesized (FIG. 2), where hydrocarbon chain (which is bearing terminal carboxylic acid) was connected to the acetaminophen through an ether bond (C—O—C) to prevent the esterolytic cleavage by lipase.

[6] = cited from earlier work
[7] = Gelation ability of polyol amphiphiles in water and organic solvents; type: physicochemical; parameters: key: G = stable gel at room temperature; P = precipitate; Sol = soluble
Source text: Examples of suitable solvents include water, salt water (such as a NaCl solution), different […] such as TRISZMA buffers, and alkaline and acidic solutions. In addition to water-based solutions, the compounds can gel various aromatic and non-aromatic organic solvents, such as benzene, toluene, hexane, and acetonitrile. All the gels obtained in Table 7 were thermally reversible. Above their gelation temperature, the gels dissolved in solvent, but could be returned to their original gel state upon cooling.

Compound	solubility in water (in words) [1]	gelation in water (in words) [1]	Gelation ability ([1]; solvent chloroform)	Gelation ability ([1]; solvent ethanol)	Gelation ability ([1]; solvent ethyl acetate)	Gelation ability ([1]; solvent isopropanol)	Gelation ability ([1]; solvent methanol)	Gelation ability ([1]; solvent t-butanol)	Gelation ability ([1]; solvent water)	minimum gelation concentration ([1]; solvent water) [wt/v %]	further results
CC(=O)Nc1ccc(OCCCCCC(=O)O)cc1 [Apn-5-ether-COOH]	–	gelation behavior akin to Apn-7-COOH	–	–	–	–	–	–	–	–	state of hydrogel after incubation with lipase [5]: still intact; curcumin release into the solution ([5]; absorption spectroscopy): prevented curcumin release
CC(=O)Nc1ccc(OC(=O)CCCCCCC(=O)Oc2ccc(NC(C)=O)cc2)cc1 [Apn-8-Apn]	–	formed stable hydrogels	S	S	I	S	S	S	G	1.1	viable cells [2]: 82%; adipogenic differentiation, Oil Red O (ORO) staining [3]: robust capacity; also recorded: equally stained for ORO; osteogenic differentiation, alkaline phosphatase (ALP) staining [4]: robust capacity; also recorded: equally stained for ALP
COc1cc(C=CC(=O)CC(=O)C=Cc2ccc(O)c(OC)c2)ccc1O [curcumin, 1,7-bis(4-hydroxy-3methoxyphenyl)-1,6-heptadiene-3,5-dione]	–	–	–	–	–	–	–	–	–	–	solubility of curcumin in water [6]: 0.03 µM
CCCCCCCCCCCCCCCC(=O)NC(CO)(CO)CO [polyol-16]	–	–	–	–	–	–	–	–	–	–	Gelation ability ([7]; solvent 1,4-dioxane): Sol; Gelation ability ([7]; solvent CCl4): G; Gelation ability ([7]; solvent CH3CN): G; Gelation ability ([7]; solvent CHCl3): Sol; Gelation ability ([7]; solvent DMSO): Sol; Gelation ability ([7]; solvent NaCl (40 mM)): G; Gelation ability ([7]; solvent TRIS (50 mM)): G; Gelation ability ([7]; solvent acetone): Sol; Gelation ability ([7]; solvent acidic (pH < 3)): G; Gelation ability ([7]; solvent basic (pH > 12)): G; Gelation ability ([7]; solvent benzene): G; Gelation ability ([7]; solvent cyclohexane): G; Gelation ability ([7]; solvent toluene): G; Gelation ability ([7]; solvent water): G

Second part, led by results:

solubility in water (in words) [1]	gelation in water (in words) [1]	Gelation ability ([1]; solvent chloroform)	Gelation ability ([1]; solvent ethanol)	Gelation ability ([1]; solvent ethyl acetate)	Gelation ability ([1]; solvent isopropanol)	Gelation ability ([1]; solvent methanol)	Gelation ability ([1]; solvent t-butanol)	Gelation ability ([1]; solvent water)	minimum gelation concentration ([1]; solvent water) [wt/v %]	Compound	further results
water soluble	–	–	–	–	–	–	–	–	–	CC(=O)Nc1ccc(O)cc1 [Apn, N-(4-hydroxyphenyl)acetamide, reference compound]	viable cells [2]: 91%; adipogenic differentiation, Oil Red O (ORO) staining [3]: robust capacity; also recorded: positive staining; osteogenic differentiation, alkaline phosphatase (ALP) staining [4]: robust capacity; also recorded: positive staining
not soluble	did not gelate	S	G	P	G	S	G	I	–	CCCCCCCCCCCC(=O)Oc1ccc(NC(C)=O)cc1 [Apn-11-CH3]	minimum gelation concentration ([1]; solvent ethanol): 1.5 wt/v %; minimum gelation concentration ([1]; solvent isopropanol): 0.8 wt/v %; minimum gelation concentration ([1]; solvent t-butanol): 0.6 wt/v %
sparingly soluble	–	S	S	I	S	S	S	G	0.6	CC(=O)Nc1ccc(OC(=O)CCCCCCCCCCCCC(=O)O)cc1 [Apn-13-COOH]	–
insoluble	–	S	S	I	S	S	S	G	0.9	CC(=O)Nc1ccc(OC(=O)CCCCCCCCCCCCC(=O)Oc2ccc(NC(C)=O)cc2)cc1 [Apn-14-Apn]	–
